Measurements as given in patent EP3558896B1, “USE OF ARYL S[…] TRIAMIDE UREASE INHIBITORS WITH PHOSPHORUS-[…] FERTILIZERS” (BASF SE, priority 2016, dated 2018).

Assay: Decomposition of urease inhibitors on treated urea granules mixed with triple super phosphate (TSP) granules
Type: physicochemical
Conditions: after one day in the absence of TSP granules

Structure (SMILES)	decomposition of the urease inhibitors
CCCCNP(N)(N)=S [NBPT, N-n-butylthiophosphoric acid triamide]	no decomposition
CCCNP(N)(N)=S [NPPT, N-n-propylthiophosphoric acid triamide]	no decomposition
